Test results published in publication PMC4745691, “New therapeutic strategies in neuroblastoma: combined targeting of a novel tyrosine kinase inhibitor and liposomal siRNAs against ALK” (Oncotarget, 2015).

Assay: Tolerability in subcutaneous NB model (MTD, adverse effects, body weight)
Assay type: in vivo
Conditions: 50 mg/kg BID oral gavage, NB-bearing mice
Protocol: In other set of experiments, Balb/c nude mice were xenografted with SH-SY5Y cells as earlier. […] Tumors were measured twice weekly using callipers, and volume was calculated using the formula: Length × Width^2 × 0.5. Body weight was also assessed twice weekly. The experiment was terminated after 3 weeks of treatment.

C[C@@H](Oc1cc(-c2cnn(C3CCNCC3)c2)cnc1N)c1c(Cl)ccc(F)c1Cl [crizotinib, Crizotinib]
mice weight over time: No signs of severe weight
